Assay results reported in article PMC11956017, “Design of Benzyl-triazolopyrimidine-Based NADPH Oxidase Inhibitors Leads to the Discovery of a Potent Dual Covalent NOX2/MAOB Inhibitor” (Journal of Medicinal Chemistry, 2025).
Entries after “also recorded” stand apart in the source; their conditions may differ.

Tests used:
[1] = system: dehydrogenase domain of csNOX5; assay: NADPH depletion assay on csNOX5 dehydrogenase domain; assay type: biochemical, Cylindrospermum stagnale; conditions: 10 μM inhibitor; 1 μM purified protein, 250 μM NADPH
Experimental: A series of derivatives were synthesized and tested at 10 μM against the dehydrogenase domain of NOX5 from Cylindrospermum stagnale (C. stagnale, CsNOX5; Figure 2B).
The NADPH depletion assay for IC50 determinations was performed as described[10] with modifications for covalent inhibitors, which require longer incubation times. Briefly, the catalytic activity was measured by monitoring the absorbance at 340 nm with a Cary 100 UV–vis spectrophotometer (Varian). A 1 μM portion of purified protein was added in a final volume of 130 μL of 50 mM HEPES pH 7.5 and supplemented with 300 μM FAD. Inhibitors were added at varying concentrations and incubated for 1 h at 25 °C.

human NOX1 = molecular target: T1, human NOX1 (Homo sapiens, UniProt Q9Y5S8); assay: Human NOX1 isolated membranes, Amplex Red/horseradish peroxidase coupled assay; assay type: biochemical; conditions: membrane-embedded, 40 μM NADPH; for IC50: read-out: IC50 on human NOXs, NOX1 (AMPLEX RED)
T1 construct: expressed in transfected cells; host or cells: HEK293 F cells, transient transfection (pEG BacMam vector); isolated membranes; Cytosolic proteins made in E. coli
T1 sequence (Q9Y5S8 1-564): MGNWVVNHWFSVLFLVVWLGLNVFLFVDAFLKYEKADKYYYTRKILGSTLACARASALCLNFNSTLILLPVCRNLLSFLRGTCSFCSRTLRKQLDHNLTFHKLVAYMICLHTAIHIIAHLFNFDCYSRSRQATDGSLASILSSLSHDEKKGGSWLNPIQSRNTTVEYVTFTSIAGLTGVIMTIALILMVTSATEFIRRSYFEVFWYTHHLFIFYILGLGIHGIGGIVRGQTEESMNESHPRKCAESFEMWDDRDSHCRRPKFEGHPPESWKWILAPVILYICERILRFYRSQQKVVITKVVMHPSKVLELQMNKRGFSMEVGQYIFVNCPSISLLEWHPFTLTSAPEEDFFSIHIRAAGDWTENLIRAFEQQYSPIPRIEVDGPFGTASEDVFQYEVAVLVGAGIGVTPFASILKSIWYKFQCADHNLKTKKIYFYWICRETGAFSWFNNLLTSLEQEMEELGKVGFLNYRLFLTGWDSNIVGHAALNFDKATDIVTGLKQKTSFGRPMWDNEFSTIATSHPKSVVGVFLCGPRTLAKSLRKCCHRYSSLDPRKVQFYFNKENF
T1 sequence (P13498 1-195 partner): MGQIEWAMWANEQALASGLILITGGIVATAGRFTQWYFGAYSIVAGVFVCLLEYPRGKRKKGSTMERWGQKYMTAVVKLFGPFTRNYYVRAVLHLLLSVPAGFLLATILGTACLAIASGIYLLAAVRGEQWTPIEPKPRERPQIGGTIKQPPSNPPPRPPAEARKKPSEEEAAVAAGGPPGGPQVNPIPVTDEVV
Experimental: (§1) Activity assays for IC50 determinations were performed as previously described[40],[42] with modifications for covalent inhibitors. […] The estimated final protein concentrations based on the heme’s absorbance (ε414 nm = 131,000 M^–1 cm^–1) were 10–20 nM. Compounds were incubated for 1 h at 25 °C at varying concentrations, and reactions were initiated with 40 μM NADPH. Fluorescence was measured using a ClarioStar plate reader (excitation 572 nm/emission 583 nm).

human NOX4 = molecular target: T2, human NOX4 (Homo sapiens, UniProt Q9NPH5); assay: Human NOX4 isolated membranes, Amplex Red/horseradish peroxidase coupled assay; assay type: biochemical; conditions: membrane-embedded; 40 μM NADPH; read-out: IC50 on human NOXs, NOX4 (AMPLEX RED)
T2 construct: expressed in transfected cells; host or cells: HEK293 F cells, transient transfection (pTT22 and pYD7 vectors); isolated membranes
T2 sequence (Q9NPH5 1-578): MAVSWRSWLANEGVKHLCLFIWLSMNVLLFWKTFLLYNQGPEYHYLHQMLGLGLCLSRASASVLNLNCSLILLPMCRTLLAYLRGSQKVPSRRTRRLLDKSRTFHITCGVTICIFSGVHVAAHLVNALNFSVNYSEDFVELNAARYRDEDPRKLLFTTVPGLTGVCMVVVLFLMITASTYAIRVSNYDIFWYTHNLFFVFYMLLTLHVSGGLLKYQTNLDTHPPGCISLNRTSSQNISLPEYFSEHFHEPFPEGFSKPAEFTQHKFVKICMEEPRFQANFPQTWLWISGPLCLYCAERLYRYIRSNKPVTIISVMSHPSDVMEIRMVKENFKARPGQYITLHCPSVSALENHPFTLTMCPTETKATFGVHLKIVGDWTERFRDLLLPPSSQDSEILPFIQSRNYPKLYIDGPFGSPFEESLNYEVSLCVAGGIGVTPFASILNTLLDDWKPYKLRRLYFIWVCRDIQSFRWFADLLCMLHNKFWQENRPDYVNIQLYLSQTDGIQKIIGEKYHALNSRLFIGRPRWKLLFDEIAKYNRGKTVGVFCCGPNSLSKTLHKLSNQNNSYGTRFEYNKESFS
T2 sequence (P13498 1-195 partner): T1 sequence (P13498 1-195 partner)
Experimental: as §1

human MAOB = molecular target: T3, human MAOB (Homo sapiens, UniProt P27338); assay: Purified MAOB, Amplex Red/horseradish peroxidase coupled assay; assay type: biochemical; conditions: for IC50 Purified MAOB / IC50: 10 nM MAOB, 1 mM benzylamine
T3 construct: made in house; host or cells: Pichia pastoris
T3 sequence (P27338 1-520): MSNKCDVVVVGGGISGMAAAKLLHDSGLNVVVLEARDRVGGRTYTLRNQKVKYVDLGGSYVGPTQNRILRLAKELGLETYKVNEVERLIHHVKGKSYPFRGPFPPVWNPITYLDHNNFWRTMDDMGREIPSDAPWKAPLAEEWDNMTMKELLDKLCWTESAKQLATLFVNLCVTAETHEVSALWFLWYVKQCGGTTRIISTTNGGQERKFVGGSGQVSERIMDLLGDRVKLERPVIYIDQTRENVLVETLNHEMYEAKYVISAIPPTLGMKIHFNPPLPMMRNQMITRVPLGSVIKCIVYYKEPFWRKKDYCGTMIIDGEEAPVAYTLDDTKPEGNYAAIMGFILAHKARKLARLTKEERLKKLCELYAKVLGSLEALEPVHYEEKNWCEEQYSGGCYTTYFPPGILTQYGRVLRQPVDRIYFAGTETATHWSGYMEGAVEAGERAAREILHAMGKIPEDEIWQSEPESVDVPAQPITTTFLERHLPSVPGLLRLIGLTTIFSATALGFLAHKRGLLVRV
Experimental: IC50 values on human MAOA and human MAOB were determined using the Amplex Red/horseradish peroxidase coupled assay. […] Measurements were performed using a ClarioStar plate reader (excitation 572 nm and emission 583 nm) (BMG Labtech). IC50 values were obtained by fitting the percentage of inhibition versus log(inhibitor concentration) using GraphPad software 7.0. The covalent modification of the flavin upon the reaction with the propargylamine-containing inhibitors was monitored spectrophotometrically using a diode array UV/visible spectrophotometer (Agilent Technologies). […] The cofactor covalent modification was monitored over time following the shift of the enzyme-bound flavin (peaks at 370 and 456 nm) to 410 nm (ε410 = 23,500 M^–1 cm^–1) (Figure S10).

% INHIBITION csNOX5 DEHYDROGENASE DOMAIN [1]	IC50 on human NOXs, NOX1 (AMPLEX RED) (human NOX1)	IC50 (human NOX1)	IC50 (human NOX4)	IC50 Purified MAOB (human MAOB)	MAOB inhibition relative to rasagiline (weaker) (human MAOB)	IC50 (human MAOB)	Compound
94.6 ± 1.0%	inactive	> 100 µM	57.9 ± 7 µM	Inhibition^b			C#CCNC(=O)c1ccc(Cn2nnc3c(Sc4nc5ccccc5o4)ncnc32)cc1 [Compound 8b, (4-((7-Benzo[d]oxazol-2-yl-thio)-3H-[1,2,3]triazole[4,5-d]pyrimidin-3-yl)methyl)-N-(prop-2-in-1-yl)benzamide]
67.3 ± 4.6%		22 ± 6.7 µM	42 ± 16 µM		10 fold	0.182 ± 0.1 µM	C#CCN(C)Cc1ccc(Cn2nnc3c(Sc4nc5ccccc5o4)ncnc32)cc1 [Compound 9a, N-(4-((7-(Benzo[d]oxazol-2-ylthio)-3H-[1,2,3]triazolo[4,5-d]pyrimidin-3-yl)methyl)benzyl)-N-methylprop-2-yn-1-amine]
95.6 ± 0.1%		32.9 ± 2.9 µM	21.8 ± 1.1 µM	ineffective; also recorded: Not detected		> 100 µM	CCCNC(=O)c1ccc(Cn2nnc3c(Sc4nc5ccccc5o4)ncnc32)cc1 [Compound 8a, (4-((7-Benzo[d]oxazol-2-yl-thio)-3H-[1,2,3]triazole[4,5-d]pyrimidin-3-yl)methyl)-N-(propyl)benzamide]
